Molecular target: T1, IRAK4 (Homo sapiens, UniProt Q9NWZ3)
T1 sequence (Q9NWZ3 1-460): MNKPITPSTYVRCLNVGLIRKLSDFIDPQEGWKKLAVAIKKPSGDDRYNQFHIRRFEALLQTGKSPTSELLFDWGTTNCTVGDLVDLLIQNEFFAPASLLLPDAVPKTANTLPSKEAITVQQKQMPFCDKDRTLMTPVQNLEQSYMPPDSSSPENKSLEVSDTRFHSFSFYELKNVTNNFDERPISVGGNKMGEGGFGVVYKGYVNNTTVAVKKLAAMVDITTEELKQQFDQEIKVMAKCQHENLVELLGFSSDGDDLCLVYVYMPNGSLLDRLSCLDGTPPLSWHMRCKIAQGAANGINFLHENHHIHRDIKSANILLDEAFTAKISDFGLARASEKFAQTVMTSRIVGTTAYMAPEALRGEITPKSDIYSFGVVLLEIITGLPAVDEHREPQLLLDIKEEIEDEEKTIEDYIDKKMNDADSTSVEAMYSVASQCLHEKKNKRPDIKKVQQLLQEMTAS
Experiment: enzymatic kinase activity assay
Type: biochemical
Conditions: read-out: DW18134

IC50: 11.2 ± 2 nM
SMILES: CC1(C)Cc2cc(NC(=O)c3coc(-c4ccnc(N)c4)n3)c(-c3ccncc3)cc2O1 [DW18134]
